The record followed here is patent EP0171342A1, “Substituted 2-(1-amino-akylidenyl)1,3-indane diones, process for their preparation and their therapeutical use” (priority 1984, dated 1986).

≈ marks a conversion by molar mass, not a printed value. Read-outs that look alike come from different tables or passages of the source.

In series [1] the test system is rat Wistar soumis à une surcharge saline. Kind of series: Diuretic activity in selected Wistar rats given a saline overload (modified Wiebelhaus test). The series is classed as in vivo. The gist of the method:
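Selected Wistar rats under saline overload (modified Wiebelhaus test) received compound at 20 mg/kg. Urine volume and sodium excretion were measured over 6 h, expressed as % increase, with Na/K ratio also assessed.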

Series [2] concerns poumon de cobaye isolé perfusé. Kind of series: Bronchodilator activity: isolated perfused guinea pig lung contracted by methacholine. To be noted: flow of Tyrode solution, lung contracted by 0,05 microg/ml methacholine; read-out: concentration qui augmente ce débit de 50%.
Series [3] has as its target oreillettes droites de cobaye (Cavia porcellus, UniProt P47747). The series is described as follows: Anti-H2 activity: histamine-induced chronotropic effect on unstimulated guinea pig right atria.
The next series has as its system souris. The series is described as follows: Acute toxicity (mortality, LD50) in mice. In kind it is in vivo. To be noted: mouse.
Series [4] deals with segments isolés d'iléon de cobaye. Kind of series: Antihistamine activity: histamine-induced contraction of isolated guinea pig ileum. Particulars: 50 microg/ml, response induced by 0,5 microg/ml histamine. From the text:
L'activité antihistaminique a été appréciée in vitro par l'inhibition de la réponse contractile de segments isolés d'iléon de cobaye induite par 0,5 microg/ml d'histamine.

Series [5] concerns segments d'iléon de cobaye isolés. Kind of series: Anticholinergic activity: acetylcholine-induced contractions of isolated guinea pig ileum. Particulars: Cavia porcellus; contractions induced by 0,1 microg/ml acetylcholine; read-out: concentration qui inhibe ces contractions de 80%. From the text: L'activité anticholinergique a été appréciée par la mesure des contractions induites par 0,1 microg/ml d'acétylcholine sur des segments d'iléon de cobaye isolés. Les COR3760, COR3789, COR3792, COR4003, COR4008, COR4010, COR4014 utilisés respectivement aux concentrations de 50, 25, 25, 50, 25, 10, 25 microg/ml inhibent ces contractions de 80%.

Series [6] concerns oedème induit par l'injection intraplantaire de carragénine chez le rat. The series is described as follows: Anti-inflammatory activity: carrageenan paw oedema in rats. In kind it is in vivo. Particulars: oral 1 h before carrageenan, measured 3 h after, dose 10b mg/kg [sic]. Here is the method:
L'activité antiinflammatoire a été déterminée chez le rat par la mesure de l'inhibition de l'oedème induit par l'injection intraplantaire de 0,1 ml d'une suspension à 1% de carragénine chez le rat. Les produits à tester sont administrés par voie orale lh avant l'injection de carragénine et la mesure est réalisée 3h après cette injection. Les COR3789, COR3792, COR4003, COR4008 et COR4010 administrés à 10b mg/kg entrainent respectivement 43, 42, 41, 38 et 39% d'inhibition. Administré à 200 mg/kg, le COR3773 entraine 53% d'inhibition. L'aspirine administrée dans les mêmes conditions à 150 mg/kg entraine 40% d'inhibition de l'oedème.
(In general: Carrageenan injected into the paw causes an acute inflammation.)

In series [7] the test system is rat soumis à une surcharge hydrique. Kind of series: Diuretic activity in rats given a water overload, oral. In kind it is in vivo. Particulars: rat, water overload, oral. In outline:
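Oral dosing (5–80 mg/kg) to rats under water overload, or to rats and mice under saline overload. Urine volume and excreted sodium and potassium measured over 6 h, expressed as change versus control animals; Na/K ratio also derived.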

Sequence of oreillettes droites de cobaye (P47747 whole entry): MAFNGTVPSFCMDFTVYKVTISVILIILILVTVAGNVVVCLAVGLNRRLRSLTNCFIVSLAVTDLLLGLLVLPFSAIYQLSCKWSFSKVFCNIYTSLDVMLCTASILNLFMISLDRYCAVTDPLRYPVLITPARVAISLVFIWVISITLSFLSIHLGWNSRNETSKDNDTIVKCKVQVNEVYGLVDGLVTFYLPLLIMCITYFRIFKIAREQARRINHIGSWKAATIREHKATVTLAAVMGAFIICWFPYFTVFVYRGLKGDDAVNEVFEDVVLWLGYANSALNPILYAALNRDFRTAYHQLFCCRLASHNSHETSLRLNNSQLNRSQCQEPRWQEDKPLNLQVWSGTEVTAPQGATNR

Take `CCC(NC)=C1C(=O)c2ccccc2C1=O` [COR4003, (Méthylamino-1 propylidényl)-2 indanedione-1,3]: the change in vivo at 20 mg/kg was 56% in series [1] (6 h, read-out: augmentation de l'excrétion urinaire volumétrique mesurée au bout de 6 heures) and 56% in series [1] (read-out: augmentation de l'excrétion urinaire du sodium). In addition, the EC50 in series [2] turned out to be 10 µg/mL (≈ 46.5 µM). In series [3] (at the concentration inhibiting the histamine effect by 50 % (COR4003 100, COR4011 50 microg/ml)), the “effet chronotrope négatif intrinsèque” value was “ne présentant pas d'effet chronotrope négatif intrinsèque”. Moreover, the IC50 in series [3] (chronotropic effect induced by 5 microg/ml histamine, read-out: concentration qui inhibe de 50 % cet effet chronotrope (converted)) was 465 µM. Moreover, the mortalité result with souris (intraperitoneal, 200 mg/kg) is “aucune mortalité”; with souris (oral, 300 mg/kg), “aucune mortalité”. The “inhibition de la réponse contractile” value in series [4] is “inhibe cette réponse”. Further, the IC80 in series [5] was 50 µg/mL (≈ 232 µM). Also, the “inhibition de l'oedème” value in series [6] came to 41%. In series [7] (10 mg/kg), the “facteur multipliant l'excrétion sodique” value is 2,4. Besides, the response vs control in vivo at 20 mg/kg in series [7] (20 mg/kg, read-out: facteur multipliant l'excrétion urinaire du sodium) stood at 720%.
